For experiment [1] the following is noted: when hydrocortisone is set to 1; cited from earlier work.
For experiment [2], the system named is iNCC (iPS cell-derived neural crest cell). As to the kind of experiment: Differentiation induction from iNCC into iMSC, surface antigen analysis using FACS. Type of experiment: cell-based, human. As to the method: The obtained iNCCs (iPSC-derived NCCs) were seeded at a density of 5.0×10^3 cells/well into a 6-well plate coated with vitronectin-N (Thermo Fisher Scientific) at a density of 1.5 μg/cm^2 and cultured under 37° C., 5% CO2 conditions for […] using the following differentiation medium (T3 medium) to induce iMSCs (iPSC-derived MSCs).
T3 medium: StemFit (registered trademark) For Mesenchymal Stem Cells (Ajinomoto Co., Inc.), 90 nM Dexamethasone (Sigma-Aldrich) […]
iMSC was induced according to Example 1, except that 100 nM Dexamethasone, 100 nM betamethasone, 100 nM predonisolone, 666 nM predonisolone were used.
Regarding the induced iMSC, surface antigen analysis of 4 types of MSC positive markers (CD90, CD44, CD73, CD105), 1 type of NCC positive marker (MSC micro-positive marker) (CD271), and two types of MSC negative markers (CD45 and CD34) was performed using FACS.

In a further experiment the test system is TSG-6 (TNFAIP6). The experiment is described as follows: Gene expression of TSG-6 (TNFAIP6) after IFNγ stimulation, Real-Time PCR. Type of experiment: cell-based, human. Particulars: iMSC induced by adding 50 nM to 10 μM Dexamethasone, 18 days; 50 ng/mL IFNγ for 48 hr; FIG. 3. As to the method:
iNCCs were seeded at a density of 5.0×10^3 cells/well into a 6-well plate coated with vitronectin-N at a density of 1.5 μg/cm^2, and cultured under 37° C., 5% CO2 conditions for 16 days using T3 medium to induce iMSCs.
After 16 days from the start of induction, 50 ng/mL IFNγ (R&D Systems) was added to T3 medium to stimulate for 48 hr. After stimulation, RNA was purified according to the protocol of PureLink (trademark) RNA Mini Kit (Thermo Fisher Scientific) and, after reverse transcription, gene expression of TSG-6 (TNFAIP6), a therapeutic marker for inflammatory diseases, was analyzed using Real-Time PCR. As comparison targets, iNCC-derived iMSC induced to differentiate in αMEM medium containing 10% FBS, and two lots of living bone marrow-derived MSC (BMMSC) (Lonza or RoosterBio) cultured in T3 medium for 12 to 16 days were used (Table 2).
iNCCs were seeded at a density of 3.0×10^4 cells/well into a 6-well plate coated with vitronectin-N at a density of 1.5 μg/cm^2, and cultured under 37° C., 5% CO2 conditions using StemFit (registered trademark) For Mesenchymal Stem Cells supplemented with 50 nM, 100 nM, 1 μM, 10 μM, 50 μM Dexamethasone to induce iMSCs. […] After stimulation, RNA was purified and, after reverse transcription, gene expression of TNFAIP6 was analyzed using Real-Time PCR.

The nature of experiment [3]: Titer of corticosteroid as glucocorticoid. Particulars: titer as glucocorticoid taken for the converted concentrations of the Examples.
In the next experiment the test system is iNCC. The experiment is described as follows: Cell proliferation curve during differentiation induction. Particulars: group added with 50 μM; FIG. 2. Type of experiment: cell-based, human.
Experiment [4] has as its system LX-2 Human Hepatic Stellate Cell Line. As to the kind of experiment: Antifibrotic action of secretome: RT-PCR of fibrosis marker genes COL1A1 and ACTA2 in LX-2 cells. Type of experiment: cell-based. Particulars: effect of TGF-β1 stimulation itself (10 ng/mL). As to the method: LX-2 Human Hepatic Stellate Cell Line (EDM Millipore, hereinafter LX-2 cells) was cultured in a DMEM high Glucose (Life Technologies) medium supplemented with 10% FBS (Gibco), 1% penicillin-streptomycin (Nacalai), and 2 mM Glutamine (Gibco). On the fourth passage, 4×10^4 cells were seeded into each well of a 12-well plate. After 2 days of culture, the medium was replaced with a medium in which concentrated secretome obtained from iMSC was added at a concentration of 1× to a medium supplemented with 10 ng/mL TGF-β1 (Peprotech), and the culture was continued. On the second day after replacing the medium, cells were detached with Accutase (Thermo Fisher), and after collection, RNA was extracted and purified using Maxwell (registered trademark) 16 LEV simplyRNA Purification Kits (Promega), and reverse transcription was performed using PrimeScript™ RT Master Mix (Takara). RT-PCR was performed on the synthesized cDNA using the primers of TaqMan (registered trademark) Gene Expression Assays shown in Table 5.

Where [5] appears, read: StemFit For MSC + 100 nM corticosteroid.
Setting [6] is: StemFit For MSC + 666 nM corticosteroid.

The text below walks through data of patent US20240182862A1, “METHOD FOR PRODUCING MESENCHYMAL STEM CELLS” (AJINOMOTO CO., INC., priority 2021, published 2024).

As to `C[C@]12CCC(=O)C=C1CC[C@@H]1[C@@H]2C(=O)C[C@@]2(C)[C@H]1CC[C@]2(O)C(=O)CO` [cortisone], the “titer of corticosteroid as glucocorticoid” value (“titer of corticosteroid” below) in experiment [1] is recorded as 0.8.

As for `C[C@@H]1C[C@H]2[C@@H]3C[C@H](F)C4=CC(=O)C=C[C@]4(C)[C@H]3[C@@H](O)C[C@]2(C)[C@@]1(O)C(=O)CO` [paramethasone], the “titer of corticosteroid” value in experiment [1] is recorded as 10.

Take `C[C@H]1C[C@H]2[C@@H]3CCC4=CC(=O)C=C[C@]4(C)[C@@]3(F)[C@@H](O)C[C@]2(C)[C@@]1(O)C(=O)CO` [Betamethasone]: in experiment [2] (setting [5]), the “CD34 (MSC negative marker) FACS” value is recorded as 8.12%, the “CD44 (MSC positive marker) FACS” value came out at 99.60%, the “CD45 (MSC negative marker) FACS” value worked out at 0.88% and the “CD73 (MSC positive marker) FACS” value is reported as 97.86%. In experiment [2] (setting [5]), the “CD90 (MSC positive marker) FACS” value stood at 98.96%; the “CD105 (MSC positive marker) FACS” value came out at 95.34%; the “CD271 (NCC positive, MSC micro-positive marker) FACS” value (“CD271” below) worked out at 34.14%.

Consider `C[C@]12C=CC(=O)C=C1CC[C@H]1[C@@H]3C[C@@H](O)[C@](O)(C(=O)CO)[C@@]3(C)C[C@H](O)[C@@]12F` [triamcinolone], for which the “titer of corticosteroid” value in experiment [1] was 5.

Regarding `C[C@@H]1C[C@H]2[C@@H]3CCC4=CC(=O)C=C[C@]4(C)[C@@]3(F)[C@@H](O)C[C@]2(C)[C@@]1(O)C(=O)CO` [Dexamethasone, Pregna-1,4-diene-3,20-dione,9-fluoro-11,17,21-trihydroxy-16-methyl-, (11β,16α)-], the “gene expression of TSG-6 by IFNγ stimulation” value with TSG-6 (TNFAIP6) was “significantly increased”. Also, in experiment [3], the “titer used to convert concentrations” value turned out to be 26.66. The “proliferation of cells during differentiation induction” value with iNCC was “stopped after day 13”. In experiment [2] (setting [5]), the “CD34 (MSC negative marker) FACS” value was 10.52%, the “CD44 (MSC positive marker) FACS” value worked out at 99.26%, the “CD45 (MSC negative marker) FACS” value is recorded as 0.64% and the “CD73 (MSC positive marker) FACS” value is 97.82%. In experiment [2] (setting [5]), the “CD90 (MSC positive marker) FACS” value turned out to be 99.22%; the “CD105 (MSC positive marker) FACS” value worked out at 96.36%; the “CD271” value was determined as 23.42%.

Consider “TGF-β1: TGF-β1 (Peprotech), 10 ng/mL stimulus of LX-2 cells”, for which, in experiment [4], the ACTA2 expression result is “markedly increased” and the COL1A1 expression entry is given as “markedly increased”.

With `C[C@]12C=CC(=O)C=C1CC[C@@H]1[C@@H]2[C@@H](O)C[C@@]2(C)[C@H]1CC[C@]2(O)C(=O)CO` [Prednisolone], the “titer of corticosteroid” value in experiment [1] is on record as 4. For the same compound, the “titer used to convert concentrations” value in experiment [3] is recorded as 4. In addition, the “effect in promoting differentiation” value in experiment [2] (666 nM, titer as glycocorticoid aligned) is “effective in promoting differentiation”. Further, in experiment [2] (setting [5]), the “CD34 (MSC negative marker) FACS” value worked out at 9.22%, the “CD44 (MSC positive marker) FACS” value amounted to 99.60%, the “CD45 (MSC negative marker) FACS” value was 0.56% and the “CD73 (MSC positive marker) FACS” value came to 96.38%. In addition, in experiment [2] (setting [5]), the “CD90 (MSC positive marker) FACS” value is given as 98.99%; the “CD105 (MSC positive marker) FACS” value was 93.32%; the “CD271” value came to 56.94%. Moreover, in experiment [2] (setting [6]), the “CD34 (MSC negative marker) FACS” value is listed as 9.86%, the “CD44 (MSC positive marker) FACS” value is 99.70%, the “CD45 (MSC negative marker) FACS” value is on record as 0.88% and the “CD73 (MSC positive marker) FACS” value is 97.38%. In experiment [2] (setting [6]), the “CD90 (MSC positive marker) FACS” value stood at 99.18%; the “CD105 (MSC positive marker) FACS” value was determined as 95.28%; the “CD271” value is 41.02%. For the same compound, the “effect in promoting differentiation” value in experiment [2] (added at 100 nM) is on record as “limited effect”.
